# Experimental data reported in publication PMC10682951, “Structure-function and rational design of a spider toxin Ssp1a at human voltage-gated sodium channel subtypes” (Frontiers in Pharmacology, 2023).
# Bridge positions count the residues as written; N and C are the ends. Peptide text beside a SMILES is read from it.
# Columns and labels:
# Type in all cases: cell-based
# hNaV1.7 = biological target: T1, hNaV1.7 (Homo sapiens, UniProt Q15858); test: Automated whole-cell patch-clamp (QPatch 16X), hNaV1.7; details: for IC50: HEK293 cells expressing hNaV1.7 + β1 subunit, QPatch 16X, holding −80 mV, step to 0 mV, peptide incubated 2 min, 0.1% BSA, mean, SEM and n (3-9)
# T1 construct: host or cells: HEK293
# Outline: (§1)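 HEK293 cells stably expressing the channel (human subtypes with β1 subunit), held at −80 mV; 2 min peptide pre-incubation, then 20 ms steps to 0 mV after a 200 ms −120 mV conditioning pulse. Extracellular pH 7.3 with 20 mM TEA-Cl, CsF-based pipette solution, 0.1% BSA; IC50 from four-parameter Hill fit.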
# hNaV1.2 = biological target: T2, hNaV1.2 (Homo sapiens, UniProt Q99250); test: Automated whole-cell patch-clamp (QPatch 16X), hNaV1.2; details: for IC50: HEK293 cells expressing hNaV1.2 + β1 subunit, QPatch 16X, holding −80 mV, step to 0 mV, peptide incubated 2 min, 0.1% BSA, mean, SEM and n (2-7)
# T2 construct: host or cells: HEK293
# Outline: as §1
# hNaV1.3 = biological target: T3, hNaV1.3 (Homo sapiens, UniProt Q9NY46); test: Automated whole-cell patch-clamp (QPatch 16X), hNaV1.3; details: for IC50: HEK293 cells expressing hNaV1.3 + β1 subunit, QPatch 16X, holding −80 mV, step to 0 mV, peptide incubated 2 min, 0.1% BSA, mean, SEM and n (3-12)
# T3 construct: host or cells: HEK293
# Outline: as §1
# T3 sequence (Q9NY46 whole entry): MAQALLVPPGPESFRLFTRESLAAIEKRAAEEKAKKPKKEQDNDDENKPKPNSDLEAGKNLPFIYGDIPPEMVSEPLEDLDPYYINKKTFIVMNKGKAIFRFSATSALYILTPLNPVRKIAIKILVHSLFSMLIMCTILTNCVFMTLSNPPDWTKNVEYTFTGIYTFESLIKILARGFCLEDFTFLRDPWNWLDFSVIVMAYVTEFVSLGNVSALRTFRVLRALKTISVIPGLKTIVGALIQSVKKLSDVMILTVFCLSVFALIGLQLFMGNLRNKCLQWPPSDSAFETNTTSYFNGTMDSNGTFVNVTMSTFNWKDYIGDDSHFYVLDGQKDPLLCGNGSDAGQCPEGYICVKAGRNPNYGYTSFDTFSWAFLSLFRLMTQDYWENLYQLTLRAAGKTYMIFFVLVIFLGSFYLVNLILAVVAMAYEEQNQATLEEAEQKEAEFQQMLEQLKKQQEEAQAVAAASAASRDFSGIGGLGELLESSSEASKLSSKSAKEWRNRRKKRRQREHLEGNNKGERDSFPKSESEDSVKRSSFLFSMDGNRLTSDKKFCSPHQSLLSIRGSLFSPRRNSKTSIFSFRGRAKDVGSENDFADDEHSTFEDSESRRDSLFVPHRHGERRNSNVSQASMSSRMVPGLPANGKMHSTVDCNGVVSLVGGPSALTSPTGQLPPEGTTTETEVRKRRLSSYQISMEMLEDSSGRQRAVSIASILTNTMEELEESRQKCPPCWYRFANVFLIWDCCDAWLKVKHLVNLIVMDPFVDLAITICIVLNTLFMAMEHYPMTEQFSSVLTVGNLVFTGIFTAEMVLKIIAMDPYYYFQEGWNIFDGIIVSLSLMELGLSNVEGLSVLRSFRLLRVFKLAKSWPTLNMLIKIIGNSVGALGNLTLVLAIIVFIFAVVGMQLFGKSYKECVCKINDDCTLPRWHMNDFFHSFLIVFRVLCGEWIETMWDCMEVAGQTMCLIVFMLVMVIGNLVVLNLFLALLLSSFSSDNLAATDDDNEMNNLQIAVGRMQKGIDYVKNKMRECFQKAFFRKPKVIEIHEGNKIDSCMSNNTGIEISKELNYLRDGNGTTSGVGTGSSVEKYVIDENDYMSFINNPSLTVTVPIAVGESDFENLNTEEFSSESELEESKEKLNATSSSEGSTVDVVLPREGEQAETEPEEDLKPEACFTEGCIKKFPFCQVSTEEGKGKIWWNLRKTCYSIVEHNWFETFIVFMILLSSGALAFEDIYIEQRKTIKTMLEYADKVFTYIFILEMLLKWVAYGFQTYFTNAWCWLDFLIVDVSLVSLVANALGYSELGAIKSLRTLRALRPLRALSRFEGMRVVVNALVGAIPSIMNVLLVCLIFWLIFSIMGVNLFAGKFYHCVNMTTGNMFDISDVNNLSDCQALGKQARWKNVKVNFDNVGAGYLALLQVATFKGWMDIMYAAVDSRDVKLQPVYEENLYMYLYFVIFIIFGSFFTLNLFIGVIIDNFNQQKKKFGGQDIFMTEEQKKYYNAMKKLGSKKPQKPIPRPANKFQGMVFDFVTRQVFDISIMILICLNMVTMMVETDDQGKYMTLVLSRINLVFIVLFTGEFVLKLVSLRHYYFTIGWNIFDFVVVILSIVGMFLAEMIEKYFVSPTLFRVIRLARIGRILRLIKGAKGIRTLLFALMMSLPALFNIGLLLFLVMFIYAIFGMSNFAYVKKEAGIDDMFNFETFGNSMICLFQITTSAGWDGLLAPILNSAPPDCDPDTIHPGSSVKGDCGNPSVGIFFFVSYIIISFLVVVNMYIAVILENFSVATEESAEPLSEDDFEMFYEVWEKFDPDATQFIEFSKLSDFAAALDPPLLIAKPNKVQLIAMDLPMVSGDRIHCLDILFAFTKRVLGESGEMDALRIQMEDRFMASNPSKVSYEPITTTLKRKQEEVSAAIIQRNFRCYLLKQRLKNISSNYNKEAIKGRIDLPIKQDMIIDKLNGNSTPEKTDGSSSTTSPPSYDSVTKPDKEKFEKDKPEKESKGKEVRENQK
# T3 sequence (Q07699 19-218, further chain): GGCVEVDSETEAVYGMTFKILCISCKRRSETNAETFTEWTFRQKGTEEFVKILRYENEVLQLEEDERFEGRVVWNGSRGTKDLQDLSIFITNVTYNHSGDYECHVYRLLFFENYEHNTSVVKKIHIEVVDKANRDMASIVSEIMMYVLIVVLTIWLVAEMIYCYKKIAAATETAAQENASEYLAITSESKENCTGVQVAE
# T2 sequence (Q07699 19-218): as the sequence (Q07699 19-218, further chain) above
# T2 sequence (Q99250 whole entry): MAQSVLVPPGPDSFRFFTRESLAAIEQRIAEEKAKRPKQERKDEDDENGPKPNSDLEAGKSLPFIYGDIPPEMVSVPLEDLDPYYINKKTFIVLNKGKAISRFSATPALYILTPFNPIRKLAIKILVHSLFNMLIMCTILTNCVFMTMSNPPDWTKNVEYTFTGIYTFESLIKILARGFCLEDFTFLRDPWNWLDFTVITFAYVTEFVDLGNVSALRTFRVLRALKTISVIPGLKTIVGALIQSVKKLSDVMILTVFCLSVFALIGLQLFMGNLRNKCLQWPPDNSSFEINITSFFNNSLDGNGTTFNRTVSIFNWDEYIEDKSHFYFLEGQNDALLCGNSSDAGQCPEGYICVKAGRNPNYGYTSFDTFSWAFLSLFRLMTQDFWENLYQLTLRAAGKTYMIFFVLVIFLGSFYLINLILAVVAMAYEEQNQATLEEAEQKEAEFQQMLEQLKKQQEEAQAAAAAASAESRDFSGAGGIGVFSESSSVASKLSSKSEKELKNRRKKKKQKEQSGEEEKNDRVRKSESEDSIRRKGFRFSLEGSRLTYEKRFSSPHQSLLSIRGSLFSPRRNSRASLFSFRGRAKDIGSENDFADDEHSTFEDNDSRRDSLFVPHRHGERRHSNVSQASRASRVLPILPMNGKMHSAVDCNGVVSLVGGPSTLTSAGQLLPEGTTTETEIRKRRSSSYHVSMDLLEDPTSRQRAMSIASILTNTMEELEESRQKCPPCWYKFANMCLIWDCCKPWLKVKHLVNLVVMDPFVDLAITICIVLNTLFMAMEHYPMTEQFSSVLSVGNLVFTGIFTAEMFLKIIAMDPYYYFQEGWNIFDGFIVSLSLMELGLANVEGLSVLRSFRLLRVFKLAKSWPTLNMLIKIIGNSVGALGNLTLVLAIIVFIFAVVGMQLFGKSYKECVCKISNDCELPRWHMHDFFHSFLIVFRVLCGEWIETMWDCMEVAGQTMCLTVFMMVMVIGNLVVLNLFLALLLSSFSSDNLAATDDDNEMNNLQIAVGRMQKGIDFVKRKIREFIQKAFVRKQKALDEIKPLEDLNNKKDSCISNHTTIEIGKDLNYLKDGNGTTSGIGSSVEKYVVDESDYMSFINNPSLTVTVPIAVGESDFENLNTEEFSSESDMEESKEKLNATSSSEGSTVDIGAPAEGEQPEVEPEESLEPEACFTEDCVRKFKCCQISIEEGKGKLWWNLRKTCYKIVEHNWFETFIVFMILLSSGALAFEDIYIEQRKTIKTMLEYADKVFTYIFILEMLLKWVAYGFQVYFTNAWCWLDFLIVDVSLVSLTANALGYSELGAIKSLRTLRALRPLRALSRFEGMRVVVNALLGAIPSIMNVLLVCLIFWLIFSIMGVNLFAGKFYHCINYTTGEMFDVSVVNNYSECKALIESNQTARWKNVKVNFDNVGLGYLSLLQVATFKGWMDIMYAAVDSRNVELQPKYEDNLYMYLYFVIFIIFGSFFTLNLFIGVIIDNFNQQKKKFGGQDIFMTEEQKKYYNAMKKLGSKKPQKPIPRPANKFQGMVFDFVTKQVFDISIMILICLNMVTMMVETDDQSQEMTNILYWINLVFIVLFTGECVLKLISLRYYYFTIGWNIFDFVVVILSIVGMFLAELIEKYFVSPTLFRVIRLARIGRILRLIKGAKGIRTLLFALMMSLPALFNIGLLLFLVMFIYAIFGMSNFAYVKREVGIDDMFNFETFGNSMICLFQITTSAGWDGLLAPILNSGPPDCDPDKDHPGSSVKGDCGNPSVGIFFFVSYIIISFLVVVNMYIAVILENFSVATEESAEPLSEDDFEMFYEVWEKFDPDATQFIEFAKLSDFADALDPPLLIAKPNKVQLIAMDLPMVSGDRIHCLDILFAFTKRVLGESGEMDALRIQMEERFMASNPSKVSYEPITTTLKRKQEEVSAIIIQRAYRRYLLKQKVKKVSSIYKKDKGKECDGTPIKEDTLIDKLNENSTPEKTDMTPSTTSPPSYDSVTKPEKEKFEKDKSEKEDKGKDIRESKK
SMILES,IC50 (hNaV1.7),IC50 (hNaV1.2),IC50 (hNaV1.3),Activity at hNaV1.3 (in words) (hNaV1.3; alanine mutant vs rSsp1a),"inhibition at 3 µM (hNaV1.3; 3 µM peptide, QPatch, read-out: Inhibition (block) of hNaV1.3 at 3 µM)",Loss (reduction) in potency vs rSsp1a at hNaV1.7 (hNaV1.7; relative to wild type rSsp1a),Loss (reduction) in potency vs rSsp1a at hNaV1.2 (hNaV1.2; relative to wild type rSsp1a)
CC(C)C[C@H](NC(=O)[C@H](CO)NC(=O)[C@H](Cc1ccc(O)cc1)NC(=O)[C@H](CCCNC(=N)N)NC(=O)[C@@H]1CSSC[C@@H]2NC(=O)[C@H](CCCCN)NC(=O)[C@H](CC(N)=O)NC(=O)[C@H](CC(N)=O)NC(=O)[C@H](CC(N)=O)NC(=O)[C@@H]3CCCN3C(=O)[C@H](CC(=O)O)NC(=O)[C@@H]3CSSC[C@H](NC(=O)[C@H](C(C)C)NC(=O)[C@H](Cc4ccc(O)cc4)NC(=O)CNC(=O)[C@H](CCC(=O)O)NC(=O)[C@H](CSSC[C@H](NC(=O)[C@H](CC(=O)O)NC(=O)CN)C(=O)N[C@@H](CC(C)C)C(=O)NCC(=O)N[C@@H](Cc4c[nH]c5ccccc45)C(=O)N[C@@H](Cc4ccccc4)C(=O)N[C@@H](CO)C(=O)NCC(=O)N3)NC2=O)C(=O)N[C@@H](Cc2c[nH]cn2)C(=O)N[C@@H](Cc2c[nH]c3ccccc23)C(=O)N[C@@H](CCCCN)C(=O)N[C@@H](Cc2ccc(O)cc2)C(=O)N2CCC[C@H]2C(=O)N[C@@H](Cc2c[nH]c3ccccc23)C(=O)N1)C(=O)O [D32S],101 nM,97 nM,137 nM,–,–,–,–
"CC(C)C[C@H](NC(=O)[C@H](CC(=O)O)NC(=O)[C@H](Cc1ccc(O)cc1)NC(=O)[C@H](CCCNC(=N)N)NC(=O)[C@@H]1CSSC[C@@H]2NC(=O)[C@H](CCCCN)NC(=O)[C@H](CC(=O)O)NC(=O)[C@H](CC(N)=O)NC(=O)[C@H](CC(N)=O)NC(=O)[C@@H]3CCCN3C(=O)[C@H](CC(=O)O)NC(=O)[C@@H]3CSSC[C@H](NC(=O)[C@H](C(C)C)NC(=O)[C@H](Cc4ccc(O)cc4)NC(=O)CNC(=O)[C@H](CCC(=O)O)NC(=O)[C@H](CSSC[C@H](NC(=O)[C@H](CC(=O)O)NC(=O)CN)C(=O)N[C@@H](CC(C)C)C(=O)NCC(=O)N[C@@H](Cc4ccccc4)C(=O)N[C@@H](Cc4ccccc4)C(=O)N[C@@H](CO)C(=O)NCC(=O)N3)NC2=O)C(=O)N[C@@H](Cc2c[nH]cn2)C(=O)N[C@@H](Cc2c[nH]c3ccccc23)C(=O)N[C@@H](CCCCN)C(=O)N[C@@H](Cc2ccc(O)cc2)C(=O)N2CCC[C@H]2C(=O)N[C@@H](Cc2c[nH]c3ccccc23)C(=O)N1)C(=O)O [W5F/N14D] (H-GDCLGFFSGCDPNNDKCCEGYVCHWKYPWCRYDL-OH; disulfide 3-18, 10-23, 17-30)",391 nM,735 nM,1200 nM,–,–,–,–
CC(C)C[C@H](NC(=O)[C@H](CC(=O)O)NC(=O)[C@H](Cc1ccc(O)cc1)NC(=O)[C@H](CCCNC(=N)N)NC(=O)[C@@H]1CSSC[C@@H]2NC(=O)[C@H](CCCCN)NC(=O)[C@H](CC(N)=O)NC(=O)[C@H](CC(N)=O)NC(=O)[C@H](CC(N)=O)NC(=O)[C@@H]3CCCN3C(=O)[C@H](CC(=O)O)NC(=O)[C@@H]3CSSC[C@H](NC(=O)[C@H](C(C)C)NC(=O)[C@H](C)NC(=O)CNC(=O)[C@H](CCC(=O)O)NC(=O)[C@H](CSSC[C@H](NC(=O)[C@H](CC(=O)O)NC(=O)CN)C(=O)N[C@@H](CC(C)C)C(=O)NCC(=O)N[C@@H](Cc4c[nH]c5ccccc45)C(=O)N[C@@H](Cc4ccccc4)C(=O)N[C@@H](CO)C(=O)NCC(=O)N3)NC2=O)C(=O)N[C@@H](Cc2c[nH]cn2)C(=O)N[C@@H](Cc2c[nH]c3ccccc23)C(=O)N[C@@H](CCCCN)C(=O)N[C@@H](Cc2ccc(O)cc2)C(=O)N2CCC[C@H]2C(=O)N[C@@H](Cc2c[nH]c3ccccc23)C(=O)N1)C(=O)O [Y20A],1270 nM,1840 nM,> 3000 nM,inactive,–,–,–
CC(C)C[C@H](NC(=O)[C@H](Cc1ccccc1)NC(=O)[C@H](Cc1ccc(O)cc1)NC(=O)[C@H](CCCNC(=N)N)NC(=O)[C@@H]1CSSC[C@@H]2NC(=O)[C@H](CCCCN)NC(=O)[C@H](CC(N)=O)NC(=O)[C@H](CC(N)=O)NC(=O)[C@H](CC(N)=O)NC(=O)[C@@H]3CCCN3C(=O)[C@H](CC(=O)O)NC(=O)[C@@H]3CSSC[C@H](NC(=O)[C@H](C(C)C)NC(=O)[C@H](Cc4ccc(O)cc4)NC(=O)CNC(=O)[C@H](CCC(=O)O)NC(=O)[C@H](CSSC[C@H](NC(=O)[C@H](CC(=O)O)NC(=O)CN)C(=O)N[C@@H](CC(C)C)C(=O)NCC(=O)N[C@@H](Cc4c[nH]c5ccccc45)C(=O)N[C@@H](Cc4ccccc4)C(=O)N[C@@H](CO)C(=O)NCC(=O)N3)NC2=O)C(=O)N[C@@H](Cc2c[nH]cn2)C(=O)N[C@@H](Cc2c[nH]c3ccccc23)C(=O)N[C@@H](CCCCN)C(=O)N[C@@H](Cc2ccc(O)cc2)C(=O)N2CCC[C@H]2C(=O)N[C@@H](Cc2c[nH]c3ccccc23)C(=O)N1)C(=O)O [D32F],203 nM,219 nM,162 nM,–,–,–,–
"CC(C)C[C@H](NC(=O)[C@H](CC(=O)O)NC(=O)[C@H](Cc1ccc(O)cc1)NC(=O)[C@H](CCCNC(=N)N)NC(=O)[C@@H]1CSSC[C@@H]2NC(=O)[C@H](CCCCN)NC(=O)[C@H](CC(=O)O)NC(=O)[C@H](CC(N)=O)NC(=O)[C@H](CC(N)=O)NC(=O)[C@@H]3CCCN3C(=O)[C@H](CC(=O)O)NC(=O)[C@@H]3CSSC[C@H](NC(=O)[C@H](C(C)C)NC(=O)[C@H](Cc4ccc(O)cc4)NC(=O)CNC(=O)[C@H](CCC(=O)O)NC(=O)[C@H](CSSC[C@H](NC(=O)[C@H](CC(=O)O)NC(=O)CN)C(=O)N[C@@H](CC(C)C)C(=O)NCC(=O)N[C@@H](Cc4c[nH]c5ccccc45)C(=O)N[C@@H](Cc4ccccc4)C(=O)N[C@@H](CO)C(=O)NCC(=O)N3)NC2=O)C(=O)N[C@@H](Cc2c[nH]cn2)C(=O)N[C@@H](Cc2c[nH]c3ccccc23)C(=O)N[C@@H](CCCCN)C(=O)N[C@@H](Cc2ccc(O)cc2)C(=O)N[C@@H](CCCNC(=N)N)C(=O)N[C@@H](Cc2c[nH]c3ccccc23)C(=O)N1)C(=O)O [N14D/P27R] (H-GDCLGWFSGCDPNNDKCCEGYVCHWKYRWCRYDL-OH; disulfide 3-18, 10-23, 17-30)",57 nM,87 nM,> 3000 nM,–,~40%,–,–
CC(C)C[C@H](NC(=O)[C@H](CC(=O)O)NC(=O)[C@H](Cc1ccc(O)cc1)NC(=O)[C@H](CCCNC(=N)N)NC(=O)[C@@H]1CSSC[C@@H]2NC(=O)[C@H](CCCCN)NC(=O)[C@H](CC(N)=O)NC(=O)[C@H](CC(N)=O)NC(=O)[C@H](CC(N)=O)NC(=O)[C@@H]3CCCN3C(=O)[C@H](CC(=O)O)NC(=O)[C@@H]3CSSC[C@H](NC(=O)[C@H](C(C)C)NC(=O)[C@H](Cc4ccc(O)cc4)NC(=O)CNC(=O)[C@H](CCC(=O)O)NC(=O)[C@H](CSSC[C@H](NC(=O)CNC(=O)CN)C(=O)N[C@@H](CC(C)C)C(=O)NCC(=O)N[C@@H](Cc4c[nH]c5ccccc45)C(=O)N[C@@H](Cc4ccccc4)C(=O)N[C@@H](CO)C(=O)NCC(=O)N3)NC2=O)C(=O)N[C@@H](Cc2c[nH]cn2)C(=O)N[C@@H](Cc2c[nH]c3ccccc23)C(=O)N[C@@H](CCCCN)C(=O)N[C@@H](Cc2ccc(O)cc2)C(=O)N2CCC[C@H]2C(=O)N[C@@H](Cc2c[nH]c3ccccc23)C(=O)N1)C(=O)O [D1G],307 nM,192 nM,499 nM,–,–,–,–
CC(C)C[C@H](NC(=O)[C@H](CC(=O)O)NC(=O)[C@H](Cc1ccc(O)cc1)NC(=O)[C@H](CCCNC(=N)N)NC(=O)[C@@H]1CSSC[C@@H]2NC(=O)[C@H](CCCCN)NC(=O)[C@H](CC(N)=O)NC(=O)[C@H](CC(N)=O)NC(=O)[C@H](CC(N)=O)NC(=O)[C@@H]3CCCN3C(=O)[C@H](CC(=O)O)NC(=O)[C@@H]3CSSC[C@H](NC(=O)[C@H](C(C)C)NC(=O)[C@H](Cc4ccc(O)cc4)NC(=O)CNC(=O)[C@H](CCC(=O)O)NC(=O)[C@H](CSSC[C@H](NC(=O)[C@H](CC(=O)O)NC(=O)CN)C(=O)N[C@@H](CC(C)C)C(=O)NCC(=O)N[C@@H](Cc4c[nH]c5ccccc45)C(=O)N[C@@H](Cc4ccccc4)C(=O)N[C@@H](CCCCN)C(=O)NCC(=O)N3)NC2=O)C(=O)N[C@@H](Cc2c[nH]cn2)C(=O)N[C@@H](Cc2c[nH]c3ccccc23)C(=O)N[C@@H](CCCCN)C(=O)N[C@@H](Cc2ccc(O)cc2)C(=O)N2CCC[C@H]2C(=O)N[C@@H](Cc2c[nH]c3ccccc23)C(=O)N1)C(=O)O [S7K],181 nM,201 nM,929 nM,–,–,–,–
"CC(C)C[C@H](NC(=O)[C@H](CC(=O)O)NC(=O)[C@H](Cc1ccc(O)cc1)NC(=O)[C@H](CCCNC(=N)N)NC(=O)[C@@H]1CSSC[C@@H]2NC(=O)[C@H](CCCCN)NC(=O)[C@H](CC(N)=O)NC(=O)[C@H](CC(N)=O)NC(=O)[C@H](CC(N)=O)NC(=O)[C@@H]3CCCN3C(=O)[C@H](CC(=O)O)NC(=O)[C@@H]3CSSC[C@H](NC(=O)[C@H](C(C)C)NC(=O)[C@H](Cc4ccc(O)cc4)NC(=O)CNC(=O)[C@H](CCC(=O)O)NC(=O)[C@H](CSSC[C@H](NC(=O)[C@H](CC(=O)O)NC(=O)CN)C(=O)N[C@@H](CC(C)C)C(=O)NCC(=O)N[C@@H](Cc4c[nH]c5ccccc45)C(=O)N[C@@H](Cc4ccccc4)C(=O)N[C@@H](CO)C(=O)NCC(=O)N3)NC2=O)C(=O)N[C@@H](Cc2c[nH]cn2)C(=O)N[C@@H](Cc2c[nH]c3ccccc23)C(=O)N[C@@H](CCCCN)C(=O)N[C@@H](Cc2ccc(O)cc2)C(=O)N2CCC[C@H]2C(=O)N[C@@H](C)C(=O)N1)C(=O)O [W28A] (H-GDCLGWFSGCDPNNNKCCEGYVCHWKYPACRYDL-OH; disulfide 3-18, 10-23, 17-30 (inferred); N-terminus and C-terminus assumed)",> 3000 nM,> 3000 nM,> 3000 nM,–,–,≥ 10 fold,≥ 10 fold
